Read-outs that look alike come from different tables or passages of the source.
How the values were obtained:
ShHTL7 [1] = target: T1, ShHTL7 (Striga hermonthica, UniProt A0A0M3PNA2); assay: Competitive inhibition of ShHTL7 with Yoshimulactone Green (YLG) as substrate; format: biochemical
Outline: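 YLG hydrolysis by ShHTL7 followed by fluorescence (ex 480/em 520 nm) every 1 min for 30 min; compounds and YLG from fresh DMSO stocks. After subtracting no-enzyme background, the linear 8-min increase was used; IC50 fitted from relative inhibition versus compound concentration.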

P. aegyptiaca seeds = assay: P. aegyptiaca seed germination assay; format: in vivo, Phelipanche aegyptiaca; parameters: P. aegyptiaca seed germination activity, source data average: unit of the concentration uncertain; conditions: Supplementary Fig. 9b
Outline: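 Germination scored at ×20 magnification after one week dark incubation at 25 °C with compound (acetone stock diluted 999/1 in water). Seeds were NaClO-sterilized and conditioned 4 days at 25 °C in the dark beforehand; 1‰ acetone negative, rac-GR24 positive control; triplicate biological repeats.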

[2] = tested on: ShHTLs (10 HTL proteins in S. hermonthica); assay: YLG-based competition assay on HTL proteins of S. hermonthica; format: biochemical, Striga hermonthica; conditions: Supplementary Fig. 27
From the text: In P. aegyptiaca, 5 KAI2s have been proposed as the SL receptors for the regulation of seed germination. […] The high sequence similarity may explain the consistency of these compounds in inducing germination in both S. hermonthica and P. aegyptiaca.
The excitation and emission wavelengths of YLG are 480 and 520 nm, respectively. We used a fluorescence spectrophotometer (CARY Eclipse) to detect the fluorescence intensity change of YLG during the enzymatic hydrolysis assay process. All the testing compounds and YLG were dissolved in DMSO and prepared as stock solutions just before use. […] The changes of fluorescence at 520 nm of each well were recorded every 1 min for 30 min. Using the reaction mixture without adding enzyme and tested compounds as the background control. After subtracting the background hydrolysis, a linear fluorescence increase in 8 min was used for further inspection. The IC50 values were determined via fitting relative inhibition percentages with the varying concentrations of compounds in Microsoft Excel.
Supplementary Fig. 27. Binding of compounds 4a, (R)- and (S)-4a, and 4g-i to the HTL proteins in S. hermonthica and KAI2 protein homologs in P. aegyptiaca. In the competitive inhibitory activity assay, YLG (3 µM) was used as the fluorogenic substrate. Error bar indicates SD (n = 3 biologically independent experiments).
(§1) (1 picture or pasted object on this page, not shown here)

ShHTL7 [3] = target: T1, ShHTL7; assay: ShHTL7-hydrolysis reaction analysis (HPLC); format: biochemical; conditions: 10 μM compound, 30 °C, 30 min; Supplementary Figs. 11, 20a, 24a
Experimental: Compounds 4a, (R)- and (S)-4a, 4g-i, and rac-GR24 were dissolved in DMSO and prepared as stock solution ([…]) just before use. A 200 μL of the reaction solution consisting of PBS buffer (pH 7.3), 10 μM samples, and 10 μg recombinant ShHTL7 or its mutants was incubated at 30 °C for 30 min; with the reaction solution (200 μL) containing PBS buffer (pH 7.3) and 10 μM samples as the blank control[40],[52]. Subsequently, the reaction was terminated by adding 200 μL of methanol, and then the reaction mixture was shaken for 10 s and centrifuged at 5310 × g for 60 s. The supernatant was filtered and the remaining amount of samples was analyzed by HPLC. The relative percentages of hydrolysis were obtained by using the amount of compounds in blank control as reference.
Supplementary Fig. 11. Hydrolysis of 4a, (R)-4a, (S)-4a, 4g-i, and rac-GR24 by ShHTL7 at 30 °C for 30 min. The remaining amounts of compounds in recombinant ShHTL7 protein and buffer solution were determined by HPLC analysis. The relative percentages of hydrolysis were calculated by using the amount of compounds in the buffer as reference. The error bar indicates SD (n = 3 biologically independent experiments).
as §1

[4] = ShHTL7, YLG competition, Supplementary Fig. 27, read-out: IC50, replicate 1
[5] = ShHTL7, YLG competition, Supplementary Fig. 27, read-out: IC50, replicate 2
[6] = ShHTL7, YLG competition, Supplementary Fig. 27, read-out: IC50, replicate 3
[7] = wild-type ShHTL7, average of 3, source data of Fig. 2a,b, Supplementary Figs. 8a, 9a, 20b, read-out: IC50, competitive ShHTL7 inhibition (YLG), source data average
[8] = 0.1 (unit uncertain) as printed
[9] = ShHTL2, YLG competition, read-out: IC50, replicate 1
[10] = ShHTL2, YLG competition, read-out: IC50, replicate 2
[11] = ShHTL2, YLG competition, read-out: IC50, replicate 3
[12] = ShHTL2, average of 3 replicates, read-out: IC50, average
[13] = ShHTL3, YLG competition, read-out: IC50, replicate 1
[14] = ShHTL3, YLG competition, read-out: IC50, replicate 2
[15] = ShHTL3, YLG competition, read-out: IC50, replicate 3
[16] = ShHTL3, average of 3 replicates, read-out: IC50, average
[17] = ShHTL4, YLG competition, read-out: IC50, replicate 1
[18] = ShHTL4, YLG competition, read-out: IC50, replicate 2
[19] = ShHTL4, YLG competition, read-out: IC50, replicate 3
[20] = ShHTL4, average of 3 replicates, read-out: IC50, average
[21] = ShHTL5, YLG competition, read-out: IC50, replicate 1
[22] = ShHTL5, YLG competition, read-out: IC50, replicate 2
[23] = ShHTL5, YLG competition, read-out: IC50, replicate 3
[24] = ShHTL5, average of 3 replicates, read-out: IC50, average
[25] = ShHTL6, YLG competition, read-out: IC50, replicate 1
[26] = ShHTL6, YLG competition, read-out: IC50, replicate 2
[27] = ShHTL6, YLG competition, read-out: IC50, replicate 3
[28] = ShHTL6, average of 3 replicates, read-out: IC50, average
[29] = ShHTL8, YLG competition, read-out: IC50, replicate 1
[30] = ShHTL8, YLG competition, read-out: IC50, replicate 2
[31] = ShHTL8, YLG competition, read-out: IC50, replicate 3
[32] = ShHTL8, average of 3 replicates, read-out: IC50, average
[33] = ShHTL9, YLG competition, read-out: IC50, replicate 1
[34] = ShHTL9, YLG competition, read-out: IC50, replicate 2
[35] = ShHTL9, YLG competition, read-out: IC50, replicate 3
[36] = ShHTL9, average of 3 replicates, read-out: IC50, average
[37] = ShHTL10, YLG competition, read-out: IC50, replicate 1
[38] = ShHTL10, YLG competition, read-out: IC50, replicate 2
[39] = ShHTL10, YLG competition, read-out: IC50, replicate 3
[40] = ShHTL10, average of 3 replicates, read-out: IC50, average
[41] = ShHTL11, YLG competition, read-out: IC50, replicate 1
[42] = ShHTL11, YLG competition, read-out: IC50, replicate 2
[43] = ShHTL11, YLG competition, read-out: IC50, replicate 3
[44] = ShHTL11, average of 3 replicates, read-out: IC50, average

T1 sequence (A0A0M3PNA2 entry or part of it): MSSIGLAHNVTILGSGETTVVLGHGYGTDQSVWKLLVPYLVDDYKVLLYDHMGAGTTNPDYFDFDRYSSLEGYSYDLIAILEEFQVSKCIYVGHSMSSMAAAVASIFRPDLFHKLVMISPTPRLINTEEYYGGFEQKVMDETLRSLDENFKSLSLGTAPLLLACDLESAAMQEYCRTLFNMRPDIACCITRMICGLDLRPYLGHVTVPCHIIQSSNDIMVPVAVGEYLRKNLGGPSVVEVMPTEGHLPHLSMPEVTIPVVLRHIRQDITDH

`CC1=CC(OC(=O)N2CCN(C(=O)COc3ccc(Br)cc3C)CC2)N(C)C1=O` (stereo not shown) [4h] gave an IC50 (ShHTL7 [1]; [4]) of 4.33 µM, an IC50 (ShHTL7 [1]; [5]) of 5.43 µM and an IC50 (ShHTL7 [1]; [6]) of 4.75 µM. For the same molecule, the IC50 (ShHTL7 [1]; [7]) was 4.84 µM, the “P. aegyptiaca seed germination activity, source data average” value (“P. aegyptiaca seed germination activity” for short) (P. aegyptiaca seeds; [8]) was 6.8801% and the “P. aegyptiaca seed germination activity” value (P. aegyptiaca seeds; 1 (unit uncertain) as printed) was 41.0534%. The “P. aegyptiaca seed germination activity” value (P. aegyptiaca seeds; 10 (unit uncertain) as printed) was 82.4464%, the IC50 [2, 9] was 72.3 µM and the IC50 [2, 10] was 78.3 µM. The IC50 [2, 11] was 79.2 µM, the IC50 [2, 12] was 76.6 µM and the IC50 [2, 13] was over 100 µM. It also gave an IC50 [2, 14] of over 100 µM, an IC50 [2, 15] of over 100 µM and an IC50 [2, 16] of over 100 µM. It also gave an IC50 [2, 17] of 12.7 µM, an IC50 [2, 18] of 14.6 µM and an IC50 [2, 19] of 8.97 µM. The IC50 [2, 20] was 12.1 µM, the IC50 [2, 21] was 32.9 µM and the IC50 [2, 22] was 39.4 µM. For the same molecule, the IC50 [2, 23] was 42.1 µM, the IC50 [2, 24] was 38.1 µM and the IC50 [2, 25] was over 100 µM. For the same molecule, the IC50 [2, 26] was over 100 µM, the IC50 [2, 27] was over 100 µM and the IC50 [2, 28] was over 100 µM. The IC50 [2, 29] was 65.9 µM, the IC50 [2, 30] was 81.2 µM and the IC50 [2, 31] was 80.4 µM. The IC50 [2, 32] was 75.8 µM, the IC50 [2, 33] was over 100 µM and the IC50 [2, 34] was over 100 µM. For the same molecule, the IC50 [2, 35] was over 100 µM, the IC50 [2, 36] was over 100 µM and the IC50 [2, 37] was 47.3 µM. For the same molecule, the IC50 [2, 38] was 41.8 µM, the IC50 [2, 39] was 41.6 µM and the IC50 [2, 40] was 43.6 µM. For the same molecule, the IC50 [2, 41] was over 100 µM, the IC50 [2, 42] was over 100 µM and the IC50 [2, 43] was over 100 µM. For the same molecule, the IC50 [2, 44] was over 100 µM and the “relative percentage of hydrolysis by ShHTL7, source data average” value (ShHTL7 [3]) was 12.2513%.

With `CC1=CC(CC(=O)N2CCN(C(=O)COc3ccc(Br)cc3C)CC2)OC1=O` (stereo not shown) [4i] the IC50 (ShHTL7 [1]; [4]) was 5.98 µM, the IC50 (ShHTL7 [1]; [5]) was 5.2 µM and the IC50 (ShHTL7 [1]; [6]) was 4.35 µM. The IC50 (ShHTL7 [1]; [7]) was 5.18 µM, the “P. aegyptiaca seed germination activity” value (P. aegyptiaca seeds; [8]) was 6.798% and the “P. aegyptiaca seed germination activity” value (P. aegyptiaca seeds; 1 (unit uncertain) as printed) was 17.2667%. For the same molecule, the “P. aegyptiaca seed germination activity” value (P. aegyptiaca seeds; 10 (unit uncertain) as printed) was 39.4856%, the IC50 [2, 9] was 50.6 µM and the IC50 [2, 10] was 70.1 µM. The IC50 [2, 11] was 65.1 µM, the IC50 [2, 12] was 61.9 µM and the IC50 [2, 13] was over 100 µM. The IC50 [2, 14] was over 100 µM, the IC50 [2, 15] was over 100 µM and the IC50 [2, 16] was over 100 µM. For the same molecule, the IC50 [2, 17] was 15 µM, the IC50 [2, 18] was 21.2 µM and the IC50 [2, 19] was 16.4 µM. For the same molecule, the IC50 [2, 20] was 17.5 µM, the IC50 [2, 21] was 48.9 µM and the IC50 [2, 22] was 42.2 µM. For the same molecule, the IC50 [2, 23] was 43 µM, the IC50 [2, 24] was 44.7 µM and the IC50 [2, 25] was 79.2 µM. For the same molecule, the IC50 [2, 26] was 55 µM, the IC50 [2, 27] was 69.4 µM and the IC50 [2, 28] was 67.9 µM. For the same molecule, the IC50 [2, 29] was 72.8 µM, the IC50 [2, 30] was 71.1 µM and the IC50 [2, 31] was 75.4 µM. The IC50 [2, 32] was 73.1 µM, the IC50 [2, 33] was 22.6 µM and the IC50 [2, 34] was 24.8 µM. For the same molecule, the IC50 [2, 35] was 12.7 µM, the IC50 [2, 36] was 20.1 µM and the IC50 [2, 37] was 69.6 µM. For the same molecule, the IC50 [2, 38] was 67.6 µM, the IC50 [2, 39] was 57.8 µM and the IC50 [2, 40] was 65 µM. For the same molecule, the IC50 [2, 41] was 91.9 µM, the IC50 [2, 42] was 101 µM and the IC50 [2, 43] was 86 µM. For the same molecule, the IC50 [2, 44] was 93 µM and the “relative percentage of hydrolysis by ShHTL7, source data average” value (ShHTL7 [3]) was -2.582%.

— paper PMC9271048, “Probing strigolactone perception mechanisms with rationally designed small-molecule agonists stimulating germination of root parasitic weeds” (Nature Communications, 2022)
